Test results published in US12459921B2, “Isoindoline compound, preparation method, pharmaceutical composition and use thereof” (SHANGHAI INSTITUTE OF MATERIA MEDICA, CHINESE ACADEMY OF …, priority 2018, dated 2025).

Each compound was assayed on MM.1S cells (assay: Inhibitory effect on the proliferation of MM.1S, MTS cell viability test). Details: Homo sapiens, MM1.S, 168 h, multiple myeloma MM.1S cells, 7 days incubation, read-out: Tumor cell inhibitory activity.
Type: cell-based
Method in brief: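 Viability measured by MTS (OD490 minus OD690 background, 3-4 h) after a 7-day exposure of 20,000 MM.1S cells/well to 5-fold serially diluted compound, 0.2% DMSO final. Inhibition calculated relative to DMSO wells; IC50 curve-fitted, averaged over three repeats.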

Row | SMILES | IC50 [nM]
1 | N#CC1(c2ccc(Cl)cc2)CCN(CCCCCOc2cccc3c2CN(C2CCC(=O)NC2=O)C3=O)CC1 (stereo not drawn) [Example 81, 4-(4-chlorophenyl)-1-(5-((2-(2,6-dioxopiperidine-3-)-1-oxoisoindoline-4-)oxy)pentyl) piperidine-4-carbonitrile] | < 100
2 | N#CC1(c2ccc(Cl)cc2Cl)CCN(CCCOc2cccc3c2CN(C2CCC(=O)NC2=O)C3=O)CC1 (stereo not drawn) [Example 70, 4-(2,4-chlorophenyl)-1-(3-((2-(2,6-dioxopiperidine-3-)-1-oxoisoindoline-4-)oxy)propyl)piperidine-4-carbonitrile] | < 100
3 | O=C1CCC(N2Cc3c(CCCCCN4CCN(c5noc6ccccc56)CC4)cccc3C2=O)C(=O)N1 (stereo not drawn) [Example 231, 3-(4-(5-(4-(benzisoxazole-3-yl)piperazin-1-yl)pentyl)-1-oxoisoindoline-2-yl) piperidine-2,6-dione] | 1000 to 20000
4 | N#CC1(c2cccc(OC(F)(F)F)c2)CCN(CCCOc2cccc3c2CN(C2CCC(=O)NC2=O)C3=O)CC1 (stereo not drawn) [Example 71, 1-(3-((2-(2,6-dioxopiperidine-3-)-1-oxoisoindoline-4-)oxy)propyl)-4-(3-trifluoromethoxyphenyl)piperidine-4-carbonitrile] | < 100
5 | N#Cc1ccccc1N1CCN(CCCCc2cccc3c2CN(C2CCC(=O)NC2=O)C3=O)CC1 (stereo not drawn) [Example 38, 2-(4-(4-(2-(2,6-dioxopiperidine-3-)-1-oxoisoindoline-4-)butyl)piperazine-1-)benzonitrile] | < 100
6 | O=C1CCC(N2Cc3c(OCCCCC(=O)N4CCc5ccccc54)cccc3C2=O)C(=O)N1 (stereo not drawn) [Example 118, 3-(4-((5-(indoline-1-)-5-oxopentyl)oxy)-1-oxoisoindoline-2-)piperidine-2,6-dione] | < 100
7 | O=C1CCC(N2Cc3c(CCCCN4CCN(c5cccc(C(F)(F)F)c5)CC4)cccc3C2=O)C(=O)N1 (stereo not drawn) [Example 220, 3-(1-oxo-4-(4-(4-(3-(trifluoromethyl)phenyl)piperazine-1-yl)butyl)isoindoline-2-yl)piperidine-2,6-dione] | < 100
8 | O=C1CCC(N2Cc3c(OCCCCCCOc4ccnc5ccccc45)cccc3C2=O)C(=O)N1 (stereo not drawn) [Example 14, 3-(1-oxo-4-((6-(quinoline-4-oxy)hexyl)oxy)isoindoline-2-)piperidine-2,6-dione] | < 100
9 | CC(=O)N[C@@H](CCCc1cccc2c1CN(C1CCC(=O)NC1=O)C2=O)C(=O)N[C@@H]1CCc2ccccc21 (stereo partly drawn) [Example 177, (2S)-2-acetylamino-N—((R)-2,3-dihydro-1H-indene-1-)-5-(2-(2,6-dioxopiperidine-3-)-1-oxoisoindoline-4-)pentanamide] | 100 to 1000
10 | CC(=O)N[C@@H](CCCc1cccc2c1CN(C1CCC(=O)NC1=O)C2=O)C(=O)N(C)Cc1ccccc1 (stereo partly drawn) [Example 204, (2S)-2-acetylamino-N-benzyl-5-(2-(2,6-oxopiperidine-3-)-1-oxoisoindoline-4-)-N-methylpentanamide] | 1000 to 20000
11 | COc1ccc(C2(C#N)CCN(CCCCCc3cccc4c3CN(C3CCC(=O)NC3=O)C4=O)CC2)c(OC)c1 (stereo not drawn) [Example 255, 4-(2,4-dimethoxyphenyl)-1-(5-(2-(2,6-dioxopiperidin-3-yl)-1-oxoisoindoline-4-yl)pentyl)piperidine-4-carbonitrile] | 1000 to 20000
12 | O=C1CCC(N2Cc3c(OCCCCN4CCC5(CC4)OCc4ccc(Cl)cc45)cccc3C2=O)C(=O)N1 (stereo not drawn) [Example 124, 3-(4-(4-(6-chloro-3H-spiro[isobenzofuran-1,4′-piperidine]-1′-)butoxy)-1-oxoisoindoline-2-)piperidine-2,6-dione] | < 100
13 | Cc1ccc(NC(=O)[C@H](CCCc2cccc3c2CN(C2CCC(=O)NC2=O)C3=O)NC(=O)CCCCCN)cc1Cl (stereo partly drawn) [Example 189, 6-amino-N-((2S)-1-((3-chloro-4-methylphenyl)amino)-5-(2-(2,6-dioxopiperidine-3-)-1-oxoisoindoline-4-)-1-oxopentyl-2-)hexanamide] | 100 to 1000
14 | N#CC1(c2ccc(OC3COC3)cc2)CCN(CCCCCc2cccc3c2CN(C2CCC(=O)NC2=O)C3=O)CC1 (stereo not drawn) [Example 270, 1-(5-(2-(2,6-dioxopiperidin-3-yl)-1-oxoisoindolin-4-yl)pentyl)-4-(4-(oxetan-3-yloxy)phenyl)piperidine-4-carbonitrile] | 100 to 1000
15 | N#CC1(c2cccc(Cl)c2)CCN(CCCCOc2cccc3c2CN(C2CCC(=O)NC2=O)C3=O)CC1 (stereo not drawn) [Example 75, 4-(3-chlorophenyl)-1-(4-((2-(2,6-dioxopiperidine-3-)-1-oxoisoindoline-4-)oxy)butyl)piperidine-4-carbonitrile] | 100 to 1000
16 | O=C1CCC(N2Cc3c(CCCCCN4CCC5(CC4)OCc4c(Cl)cccc45)cccc3C2=O)C(=O)N1 (stereo not drawn) [Example 280, 3-(4-(5-(4-chloro-3H-spiro[isobenzofuran-1,4′-piperidin]-1-yl)pentyl)-1-oxoisoindoline-2-yl)piperidine-2,6-dione] | 100 to 1000
17 | O=C1CCC(N2Cc3c(CCCCCN4CCN(c5cccc(C(F)(F)F)c5)CC4)cccc3C2=O)C(=O)N1 (stereo not drawn) [Example 23, 3-(1-oxo-4-(5-(4-(3-trifluoromethylphenyl)piperazine-1-)pentyl)isoindoline-2-)piperidine-2,6-dione] | < 100
18 | O=C1CCC(N2Cc3c(CCCCCN4CCC5(CC4)C(=O)Nc4ccc(F)cc45)cccc3C2=O)C(=O)N1 (stereo not drawn) [Example 278] | 100 to 1000
19 | O=C1CCC(N2Cc3c(CCCCCN4CCC5(CC4)C(=O)Nc4c(Cl)cccc45)cccc3C2=O)C(=O)N1 (stereo not drawn) [Example 279, 3-(4-(5-(7-chloro-2-oxospiro[dihydroindole-3,4-piperidin]-1-yl)pentyl)-1-oxoisoindoline-2-yl)piperidine-2,6-dione] | 100 to 1000
20 | COc1ccc(OC)c(C2(C#N)CCN(CCCCCc3cccc4c3CN(C3CCC(=O)NC3=O)C4=O)CC2)c1 (stereo not drawn) [Example 247, 4-(2,5-dimethoxyphenyl)-1-(5-(2-(2,6-dioxopiperidine-3-yl)-1-oxoisoindoline-4-yl)pentyl)piperidine-4-carbonitrile] | 100 to 1000
21 | N[C@@H](CCCc1cccc2c1CN(C1CCC(=O)NC1=O)C2=O)c1nc2cccc(Br)c2[nH]1 (stereo in doubt) [Example 195, 3-(4-((S)-4-amino-4-(7-bromo-1H-benzo[d]imidazole-2-)butyl)-1-oxoisoindoline-2-)piperidine-2,6-dione] | 100 to 1000
22 | O=C1CCC(N2Cc3c(CCCCN4CCN(c5cc(Cl)cc(Cl)c5)CC4)cccc3C2=O)C(=O)N1 (stereo not drawn) [Example 223, 3-(4-(4-(4-(3,5-dichlorophenyl)piperazine-1-yl)butyl)-1-oxoisoindoline-2-yl) piperidine-2,6-dione] | < 100
23 | N#CC1(c2ccc(OC(F)(F)F)cc2)CCN(CCCCCc2cccc3c2CN(C2CCC(=O)NC2=O)C3=O)CC1 (stereo not drawn) [Example 96, 1-(5-(2-(2,6-dioxopiperidine-3-)-1-oxoisoindoline-4-)pentyl)-4-(4-trifluoromethoxyphenyl)piperidine-4-carbonitrile] | < 100
24 | C[C@]1(N2Cc3c(OCCCN4CCC(C#N)(c5ccccc5Cl)CC4)cccc3C2=O)CCC(=O)NC1=O [Example 80, (S)-4-(2-chlorophenyl)-1-(3-((2-(3-methyl-2,6-dioxopiperidine-3-)-1-oxoisoindoline-4-)oxy)propyl)piperidine-4-carbonitrile] | 1000 to 20000
